According to ChEMBL document CHEMBL5584358, “Fungal Coculture of Herpotrichia sp. and Trametes versicolor Induces Production of Diverse Metabolites with Anti-Parkinson's Neuroprotective Activity” (J Nat Prod, 2024):
The source made the active and inactive calls. No cut-off for these calls is given here.

Assays:
PC-12 [1] = test: Cytotoxicity against rat PC12 cells assessed as effect on cell viability at 20 uM measured after 24 hrs by CCK-8 assay; assay type: toxicity, cell-based; settings: pc-12, 24 h
PC-12 [2] = test: Neuroprotective activity against MPP+-induced rat PC12 cell death assessed as cell viability at 20 uM preincubated for 1 hr followed by MPP+ addition and measured after 24 hrs by CCK-8 assay (reference value: 57%); assay type: functional; settings: time 25 hrs, read-out: Activity
PC-12 [3] = test: Neuroprotective activity against MPP+-induced rat PC12 cell death assessed as increase in cell viability at […] preincubated for 1 hr followed by MPP+ addition and measured after 24 hrs by CCK-8 assay; assay type: functional, cell-based; settings: time 25.0 hrs
PC-12 [4] = test: Neuroprotective activity against MPP+-induced rat PC12 cell death assessed as upregulation of Gpt gene expression at 1 to 10 uM preincubated for 1 hr followed by MPP+ addition and measured after 24 hrs by RNA sequencing analysis relative to control; assay type: functional; settings: dose 1-10 µM; time 25 hrs
PC-12 [5] = test: Neuroprotective activity against MPP+-induced rat PC12 cell death assessed as upregulation of Scn4b gene expression at 1 to 10 uM preincubated for 1 hr followed by MPP+ addition and measured after 24 hrs by RNA sequencing analysis relative to control; assay type: functional; settings: dose 1-10 µM; time 25 hrs
PC-12 [6] = test: Neuroprotective activity against MPP+-induced rat PC12 cell death assessed as upregulation of Cdh1 gene expression at 1 to 10 uM preincubated for 1 hr followed by MPP+ addition and measured after 24 hrs by RNA sequencing analysis relative to control; assay type: functional; settings: dose 1-10 µM; time 25 hrs
PC-12 [7] = test: Neuroprotective activity against MPP+-induced rat PC12 cell death assessed as upregulation of Tars2 gene expression at 1 to 10 uM preincubated for 1 hr followed by MPP+ addition and measured after 24 hrs by RNA sequencing analysis relative to control; assay type: functional; settings: dose 1-10 µM; time 25 hrs
PC-12 [8] = test: Neuroprotective activity against MPP+-induced rat PC12 cell death assessed as upregulation of Mtr gene expression at 1 to 10 uM preincubated for 1 hr followed by MPP+ addition and measured after 24 hrs by RNA sequencing analysis relative to control; assay type: functional; settings: dose 1-10 µM; time 25 hrs
PC-12 [9] = test: Neuroprotective activity against MPP+-induced rat PC12 cell death assessed as upregulation of Cyp2d4 gene expression at 1 to 10 uM preincubated for 1 hr followed by MPP+ addition and measured after 24 hrs by RNA sequencing analysis relative to control; assay type: functional; settings: dose 1-10 µM; time 25 hrs
PC-12 [10] = test: Neuroprotective activity against MPP+-induced rat PC12 cell death assessed as upregulation of Nat1 gene expression at 1 to 10 uM preincubated for 1 hr followed by MPP+ addition and measured after 24 hrs by RNA sequencing analysis relative to control; assay type: functional; settings: dose 1-10 µM; time 25 hrs
PC-12 [11] = test: Neuroprotective activity against MPP+-induced rat PC12 cell death assessed as upregulation of Plau gene expression at 1 to 10 uM preincubated for 1 hr followed by MPP+ addition and measured after 24 hrs by RNA sequencing analysis relative to control; assay type: functional; settings: dose 1-10 µM; time 25 hrs
PC-12 [12] = test: Neuroprotective activity against MPP+-induced rat PC12 cell death assessed as upregulation of Stat6 gene expression at 1 to 10 uM preincubated for 1 hr followed by MPP+ addition and measured after 24 hrs by RNA sequencing analysis relative to control; assay type: functional; settings: dose 1-10 µM; time 25 hrs
PC-12 [13] = test: Neuroprotective activity against MPP+-induced rat PC12 cell death assessed as upregulation of Faslg gene expression at 1 to 10 uM preincubated for 1 hr followed by MPP+ addition and measured after 24 hrs by RNA sequencing analysis relative to control; assay type: functional; settings: dose 1-10 µM; time 25 hrs
PC-12 [14] = test: Neuroprotective activity against MPP+-induced rat PC12 cell death assessed as upregulation of Rph3a gene expression at 1 to 10 uM preincubated for 1 hr followed by MPP+ addition and measured after 24 hrs by RNA sequencing analysis relative to control; assay type: functional; settings: dose 1-10 µM; time 25 hrs
PC-12 [15] = test: Neuroprotective activity against MPP+-induced rat PC12 cell death assessed as upregulation of Cryab gene expression at 1 to 10 uM preincubated for 1 hr followed by MPP+ addition and measured after 24 hrs by RNA sequencing analysis relative to control; assay type: functional; settings: dose 1-10 µM; time 25 hrs
PC-12 [16] = test: Neuroprotective activity against MPP+-induced rat PC12 cell death assessed as upregulation of Insr gene expression at 1 to 10 uM preincubated for 1 hr followed by MPP+ addition and measured after 24 hrs by RNA sequencing analysis relative to control; assay type: functional; settings: dose 1-10 µM; time 25 hrs
PC-12 [17] = test: Neuroprotective activity against MPP+-induced rat PC12 cell death assessed as upregulation of Prkce gene expression at 1 to 10 uM preincubated for 1 hr followed by MPP+ addition and measured after 24 hrs by RNA sequencing analysis relative to control; assay type: functional; settings: dose 1-10 µM; time 25 hrs
PC-12 [18] = test: Neuroprotective activity against MPP+-induced rat PC12 cell death assessed as downregulation of F8 gene expression at 1 to 10 uM preincubated for 1 hr followed by MPP+ addition and measured after 24 hrs by RNA sequencing analysis relative to control; assay type: functional; settings: dose 1-10 µM; time 25 hrs
PC-12 [19] = test: Neuroprotective activity against MPP+-induced rat PC12 cell death assessed as downregulation of Nlrp1a gene expression at 1 to 10 uM preincubated for 1 hr followed by MPP+ addition and measured after 24 hrs by RNA sequencing analysis relative to control; assay type: functional; settings: dose 1-10 µM; time 25 hrs
PC-12 [20] = test: Neuroprotective activity against MPP+-induced rat PC12 cell death assessed as downregulation of Xiap gene expression at 1 to 10 uM preincubated for 1 hr followed by MPP+ addition and measured after 24 hrs by RNA sequencing analysis relative to control; assay type: functional; settings: dose 1-10 µM; time 25 hrs
PC-12 [21] = test: Neuroprotective activity against MPP+-induced rat PC12 cell death assessed as downregulation of Nr3c2 gene expression at 1 to 10 uM preincubated for 1 hr followed by MPP+ addition and measured after 24 hrs by RNA sequencing analysis relative to control; assay type: functional; settings: dose 1-10 µM; time 25 hrs
PC-12 [22] = test: Neuroprotective activity against MPP+-induced rat PC12 cell death assessed as downregulation of Cyp2b1 gene expression at 1 to 10 uM preincubated for 1 hr followed by MPP+ addition and measured after 24 hrs by RNA sequencing analysis relative to control; assay type: functional; settings: dose 1-10 µM; time 25 hrs
PC-12 [23] = test: Neuroprotective activity against MPP+-induced rat PC12 cell death assessed as downregulation of Vnn1 gene expression at 1 to 10 uM preincubated for 1 hr followed by MPP+ addition and measured after 24 hrs by RNA sequencing analysis relative to control; assay type: functional; settings: dose 1-10 µM; time 25 hrs
PC-12 [24] = test: Neuroprotective activity against MPP+-induced rat PC12 cell death assessed as downregulation of Bdnf gene expression at 1 to 10 uM preincubated for 1 hr followed by MPP+ addition and measured after 24 hrs by RNA sequencing analysis relative to control; assay type: functional; settings: dose 1-10 µM; time 25 hrs
PC-12 [25] = test: Neuroprotective activity against MPP+-induced rat PC12 cell death assessed as downregulation of IL33 gene expression at 1 to 10 uM preincubated for 1 hr followed by MPP+ addition and measured after 24 hrs by RNA sequencing analysis relative to control; assay type: functional; settings: dose 1-10 µM; time 25 hrs
PC-12 [26] = test: Neuroprotective activity against MPP+-induced rat PC12 cell death assessed as downregulation of Prorp gene expression at 1 to 10 uM preincubated for 1 hr followed by MPP+ addition and measured after 24 hrs by RNA sequencing analysis relative to control; assay type: functional; settings: dose 1-10 µM; time 25 hrs
PC-12 [27] = test: Neuroprotective activity against MPP+-induced rat PC12 cell death assessed as downregulation of Anxa1 gene expression at 1 to 10 uM preincubated for 1 hr followed by MPP+ addition and measured after 24 hrs by RNA sequencing analysis relative to control; assay type: functional; settings: dose 1-10 µM; time 25 hrs

`C=C1CC[C@H]2C(C)(C)[C@@H](O)C[C@@H](O)[C@]2(C)[C@H]1CO` was tested, and the Activity (PC-12 [1]) was “Non-Toxic”, the viability at 20 µM (PC-12 [2]) was 71% and the Activity (PC-12 [3]) was “Active”. For the same compound, the log2FC (PC-12 [4]) was over 0.4, the log2FC (PC-12 [5]) was over 0.4 and the log2FC (PC-12 [6]) was over 0.4. The log2FC (PC-12 [7]) was over 0.4, the log2FC (PC-12 [8]) was over 0.4 and the log2FC (PC-12 [9]) was over 0.4. For the same compound, the log2FC (PC-12 [10]) was over 0.4, the log2FC (PC-12 [11]) was over 0.4 and the log2FC (PC-12 [12]) was over 0.4. For the same compound, the log2FC (PC-12 [13]) was over 0.4, the log2FC (PC-12 [14]) was over 0.4 and the log2FC (PC-12 [15]) was over 0.4. For the same compound, the log2FC (PC-12 [16]) was over 0.4, the log2FC (PC-12 [17]) was over 0.4 and the log2FC (PC-12 [18]) was over 0.4. It also gave a log2FC (PC-12 [19]) of over 0.4, a log2FC (PC-12 [20]) of over 0.4 and a log2FC (PC-12 [21]) of over 0.4. For the same compound, the log2FC (PC-12 [22]) was over 0.4, the log2FC (PC-12 [23]) was over 0.4 and the log2FC (PC-12 [24]) was over 0.4. For the same compound, the log2FC (PC-12 [25]) was over 0.4, the log2FC (PC-12 [26]) was over 0.4 and the log2FC (PC-12 [27]) was over 0.4.
